Measured values taken from patent US10844023B2 (Washington University, priority 2017, dated 2020).

What follows are compounds tested on Mfn2 null MEFs (assay: Mitochondrial elongation (aspect ratio) fusogenicity assay). Conditions: mitochondrial elongation relative to Cpd B (B01 = 100); Mfn2 null MEFs, compound overnight as printed (FIG. 48).
Assay type: cell-based, mouse
Parameters: % long compare to B: dose or concentration left out as unconfirmed

Row | SMILES | % long compare to B
1 | CC(Sc1nnc(N2CCOCC2)n1Cc1ccccc1)C(=O)Nc1ccc2c(c1)OCCO2 (stereo not drawn) [A09, 2-{[4-benzyl-5-(morpholin-4-yl)-4H-1,2,4-triazol-3-yl]sulfanyl}-N-(2,3-dihydro-1,4-benzodioxin-6-yl)propanamide] | 55%
2 | CC1CCCCC1NC(=O)NCCSCc1ccccc1 (stereo not drawn) [A10, 1-[2-(benzylsulfanyl)ethyl]-3-(2-methylcyclohexyl)urea] | 71%
3 | Cc1ccc(-n2nnnc2SC(C)c2nc(-c3nnc[nH]3)no2)cc1 (stereo not drawn) [A11, 1-(4-methylphenyl)-5-({1-[3-(4H-1,2,4-triazol-3-yl)-1,2,4-oxadiazol-5-yl]ethyl}sulfanyl)-1H-1,2,3,4-tetrazole] | 4%
4 | NC(=O)c1c(NC(=O)CSc2ccccc2)sc2c1CCC2 [B2, 2-[2-(phenylsulfanyl)acetamido]-4H,5H,6H-cyclopenta[b]thiophene-3-carboxamide] | 12%
5 | CC(Sc1nnc(N2CCOCC2)n1Cc1ccccc1)C(=O)Nc1ccc2[nH]c(=O)[nH]c2c1 (stereo not drawn) [B03, 2-{[4-benzyl-5-(morpholin-4-yl)-4H-1,2,4-triazol-3-yl]sulfanyl}-N-(2-oxo-2,3-dihydro-1H-1,3-benzodiazol-5-yl)propanamide] | 39%
6 | S=C(NCCSCc1ccco1)NC1CC2CCC1C2 (stereo not drawn) [B04, 1-{bicyclo[2.2.1]heptan-2-yl}-3-(2-{[(furan-2-yl)methyl]sulfanyl}ethyl)thiourea] | 9%
7 | CC(Sc1nnc(C2CC2)n1Cc1ccccc1)C(=O)Nc1sccc1C(N)=O (stereo not drawn) [B4, 2-{2-[(4-benzyl-5-cyclopropyl-4H-1,2,4-triazol-3-yl)sulfanyl]propanamido}thiophene-3-carboxamide] | 4%
8 | CC(C)(C)NC(=O)NC(=O)COC(=O)CSCc1nc2scc(-c3ccccc3)c2c(=O)[nH]1 [B07, 2-[(tert-butylcarbamoyl)amino]-2-oxoethyl 2-[({4-oxo-5-phenyl-3H,4H-thieno[2,3-d]pyrimidin-2-yl}methyl)sulfanyl] acetate] | 64%
9 | Cc1ccc(-c2noc(CSCCCC(=O)Nc3c(C)cccc3C)n2)cc1F [B08, N-(2,6-dimethylphenyl)-4-({[3-(3-fluoro-4-methylphenyl)-1,2,4-oxadiazol-5-yl]methyl}sulfanyl)-butanamide] | 12%
10 | O=C(NCCSCc1ccc(Br)s1)C1CCCN(C(=O)c2cccs2)C1 (stereo not drawn) [B09, N-(2-{[(5-bromothiophen-2-yl)methyl]sulfanyl}-ethyl)-1-(thiophene-2-carbonyl)piperidine-3-carboxamide] | 36%
11 | Cc1cccc(C)c1NC(=O)CCCSCc1ncc(C(C)C)o1 [B10, N-(2,6-dimethylphenyl)-4-({[5-(propan-2-yl)-1,3-oxazol-2-yl]methyl}sulfanyl)-butanamide] | 6%
12 | O=C(NCCSCc1ccsc1)C1CC2CCCC(C1)C2=O (stereo not drawn) [B11, 9-oxo-N-(2-{[(thiophen-3-yl)methyl]sulfanyl}-ethyl)bicyclo[3.3.1]-nonane-3-carboxamide] | 23%
13 | Cc1ccc(-n2c(SC(C)C(=O)Nc3ccnn3C(C)C)nnc2N2CCOCC2)cc1 (stereo not drawn) [C01, 2-{[4-(4-methylphenyl)-5-(morpholin-4-yl)-4H-1,2,4-triazol-3-yl]sulfanyl}-N-[1-(propan-2-yl)-1H-pyrazol-5-yl]propanamide] | 16%
14 | CCCc1noc(C(C)Sc2nc3cc(C)ccc3[nH]2)n1 (stereo not drawn) [C02, 5-methyl-2-{[1-(3-propyl-1,2,4-oxadiazol-5-yl)ethyl]sulfanyl}-1H-1,3-benzodiazole] | 14%
15 | COc1ccc(SC(C)C(=O)Nc2cc[nH]n2)cc1 (stereo not drawn) [C03, 2-[(4-methoxyphenyl)sulfa-nyl]-N-(1H-pyrazol-3-yl)propanamide] | 10%
16 | CCC(C)C1N=C2c3ccccc3N=C(SC(C)C(=O)Nc3cc(OC)cc(OC)c3)N2C1=O (stereo not drawn) [C04, 2-{[2-(butan-2-yl)-3-oxo-2H,3H-imidazo[1,2-c]quinazolin-5-yl]sulfanyl}-N-(3,5-dimethoxyphenyl)pro-panamide] | −1%
17 | O=C(CSCCc1ccccn1)Nc1ccc(Cl)c(Cl)c1 [C06, N-(3,4-dichlorophenyl)-2-{[2-(pyridin-2-yl)ethyl]sulfanyl}-acetamide] | −8%
18 | O=C(CSCc1ccc(F)cc1)N1CCc2c([nH]c3ccccc23)C1c1ccc(Cl)cc1 (stereo not drawn) [C07, 1-[1-(4-chlorophenyl)-1H,2H,3H,4H,9H-pyrido[3.4-b]indol-2-yl]-2-{[(4-fluorophenyl)methyl]sulfanyl}ethan-1-one] | 29%
19 | Cc1ccc(C(C)C)c(OCCCSCc2nc3ccccc3[nH]2)c1 [C09, 2-[({3-[5-methyl-2-(propan-2-yl)phenoxy]propyl}-sulfanyl)methyl]-1H-1,3-benzodiazole] | −5%
20 | CC(/N=N/C(=N)SC1CC(=O)N(c2cccc(C(=O)O)c2)C1=O)c1ccccc1 (stereo not drawn) [C10, 3-(2,5-dioxo-3-{[(E)-N-[(1-phenylethyl)imino]car-bamimidoyl]sul-fanyl}pyrrolidin-1-yl)benzoic acid] | 0%
21 | Cc1ccc(NC(=O)CC2SC(NC(c3ccc(C(C)C)cc3)c3c(O)[nH]c(=O)[nH]c3=O)=NC2=O)c(C)c1 (stereo not drawn) [C11, N-(2,4-dimethylphenyl)-2-(2-{[(6-hydroxy-2,4-dioxo-1,2,3,4-tetrahydropyrimidin-5-yl)[4-(propan-2-yl)phenyl]methyl]am-ino}-4-oxo-4,5-dihydro-1,3-thiazol-5-yl)acetamide] | −4%
22 | CCOc1ccccc1NC(=O)CSCc1cc(=O)c2ccc(C)c(C)c2[nH]1 [D01, 2-{[(7,8-dimethyl-4-oxo-1,4-dihydroquinolin-2-yl)methyl]sulfanyl}-N-(2-ethoxyphenyl)acetamide] | 9%
23 | Cc1ccc(C(=O)C(C)Sc2nnc3c(=O)n(-c4ccc(C)c(C)c4)ccn23)cc1C (stereo not drawn) [D02, 7-(3,4-dimethylphenyl)-3-{[1-(3,4-dimethylphenyl)-1-oxopropan-2-yl]sulfanyl}-7H,8H-[1,2,4]triazolo[4,3-a]pyrazin-8-one] | 13%
24 | O=C(CSCC(=O)N1CCCc2ccccc21)Nc1ccccc1 [D03, 2-{[2-oxo-2-(1,2,3,4-tetrahydroquinolin-1-yl)ethyl]sulfanyl}-N-phenylacetamide] | −17%
25 | CCOC(=O)c1sc(NC(=O)C(CC)Sc2nnc3c(n2)[nH]c2ccccc23)nc1C (stereo not drawn) [D04, ethyl 4-methyl-2-(2-{5H-[1,2,4]triazino[5,6-b]indol-3-ylsulfanyl}butanamido)-1,3-thiazole-5-carboxylate] | 24%
26 | COc1ccc2c(c1)C1(SCCN1C(=O)c1ccccc1C)C(=O)N2Cc1cccc(C(F)(F)F)c1 (stereo not drawn) [D05, 5-methoxy-3′-(2-methylbenzoyl)-1-{[3-(trifluoromethyl)-phenyl]methyl}-1,2-dihydrospiro[indole-3,2′-[1,3]thiazolidine]-2-one] | 4%

Same assay, conditions: rank order of aspect ratio among 44 soluble library compounds

Row | SMILES | Fusogenicity Rank
27 | CC1CCCCC1NC(=O)NCCSCc1ccccc1 (stereo not drawn) [A10, 1-[2-(benzylsulfanyl)ethyl]-3-(2-methylcyclohexyl)urea] | 4
